Test results taken from ChEMBL document CHEMBL1147447, “Discovery and in vitro evaluation of potent TrkA kinase inhibitors: oxindole and aza-oxindoles” (Bioorg Med Chem Lett, 2004).
The source made the active and inactive calls. No cut-off for these calls is given here.

Assays:
[1] = biological target: T1, High affinity nerve growth factor receptor (Homo sapiens, UniProt P04629); assay: (§1) Inhibition of receptor Tyrosine kinase A, TrkA (nerve growth factor receptor)
Target sequence in this assay (P04629 whole entry): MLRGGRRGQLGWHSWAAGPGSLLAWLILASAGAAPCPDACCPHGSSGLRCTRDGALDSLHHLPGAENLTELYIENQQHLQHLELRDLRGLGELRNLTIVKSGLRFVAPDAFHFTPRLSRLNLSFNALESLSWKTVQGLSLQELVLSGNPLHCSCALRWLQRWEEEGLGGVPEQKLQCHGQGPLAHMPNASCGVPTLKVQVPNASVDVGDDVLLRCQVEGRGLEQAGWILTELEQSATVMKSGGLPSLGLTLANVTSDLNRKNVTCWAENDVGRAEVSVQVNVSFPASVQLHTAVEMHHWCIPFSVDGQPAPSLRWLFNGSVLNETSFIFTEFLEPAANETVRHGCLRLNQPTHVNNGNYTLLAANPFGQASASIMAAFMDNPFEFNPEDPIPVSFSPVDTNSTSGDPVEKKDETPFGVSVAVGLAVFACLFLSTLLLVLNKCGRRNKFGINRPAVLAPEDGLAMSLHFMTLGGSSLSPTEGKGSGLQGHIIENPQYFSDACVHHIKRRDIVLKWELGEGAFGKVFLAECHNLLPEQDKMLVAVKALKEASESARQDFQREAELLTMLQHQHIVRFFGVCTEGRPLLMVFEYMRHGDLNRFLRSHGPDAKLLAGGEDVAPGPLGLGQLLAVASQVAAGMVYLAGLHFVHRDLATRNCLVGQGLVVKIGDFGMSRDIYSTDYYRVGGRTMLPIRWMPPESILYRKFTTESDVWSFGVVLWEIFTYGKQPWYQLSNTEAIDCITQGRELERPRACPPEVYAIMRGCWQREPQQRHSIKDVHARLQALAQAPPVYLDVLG

[2] = biological target: RAF proto-oncogene serine/threonine-protein kinase (Homo sapiens, UniProt P04049); assay: Inhibition of c-Raf1 kinase
RAF proto-oncogene serine/threonine-protein kinase, sequence (P04049 whole entry): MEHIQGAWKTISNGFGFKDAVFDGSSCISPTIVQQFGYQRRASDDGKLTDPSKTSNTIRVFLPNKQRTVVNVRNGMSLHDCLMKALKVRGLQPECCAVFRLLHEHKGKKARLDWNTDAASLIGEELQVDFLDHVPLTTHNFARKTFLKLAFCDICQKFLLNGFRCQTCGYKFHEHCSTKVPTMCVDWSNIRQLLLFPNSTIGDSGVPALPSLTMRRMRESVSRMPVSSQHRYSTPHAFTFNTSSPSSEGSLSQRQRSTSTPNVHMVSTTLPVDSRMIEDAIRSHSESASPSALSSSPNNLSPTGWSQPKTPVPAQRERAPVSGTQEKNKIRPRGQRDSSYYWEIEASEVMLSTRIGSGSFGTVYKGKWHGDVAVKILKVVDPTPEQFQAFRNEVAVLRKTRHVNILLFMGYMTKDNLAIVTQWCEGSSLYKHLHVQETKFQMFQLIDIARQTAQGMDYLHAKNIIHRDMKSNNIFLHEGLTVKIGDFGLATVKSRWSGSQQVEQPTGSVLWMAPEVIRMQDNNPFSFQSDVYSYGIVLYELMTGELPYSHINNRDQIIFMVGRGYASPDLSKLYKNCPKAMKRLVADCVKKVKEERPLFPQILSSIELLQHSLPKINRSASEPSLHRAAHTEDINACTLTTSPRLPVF

[3] = biological target: Cyclin-dependent kinase 2/cyclin A (Homo sapiens, UniProt P24941); assay: Inhibition of Cyclin-dependent kinase 2 cyclin A; assay type: protein-complex assay
[4] = Inhibition prostate cancer growth in 10 diverse animal models; assay type: functional, tissue-based; conditions: Prostate gland
[5] = biological target: T1, High affinity nerve growth factor receptor; assay: as §1; remark: listed apart in the source
Target sequence in this assay (P04629 33-796 limits assumed): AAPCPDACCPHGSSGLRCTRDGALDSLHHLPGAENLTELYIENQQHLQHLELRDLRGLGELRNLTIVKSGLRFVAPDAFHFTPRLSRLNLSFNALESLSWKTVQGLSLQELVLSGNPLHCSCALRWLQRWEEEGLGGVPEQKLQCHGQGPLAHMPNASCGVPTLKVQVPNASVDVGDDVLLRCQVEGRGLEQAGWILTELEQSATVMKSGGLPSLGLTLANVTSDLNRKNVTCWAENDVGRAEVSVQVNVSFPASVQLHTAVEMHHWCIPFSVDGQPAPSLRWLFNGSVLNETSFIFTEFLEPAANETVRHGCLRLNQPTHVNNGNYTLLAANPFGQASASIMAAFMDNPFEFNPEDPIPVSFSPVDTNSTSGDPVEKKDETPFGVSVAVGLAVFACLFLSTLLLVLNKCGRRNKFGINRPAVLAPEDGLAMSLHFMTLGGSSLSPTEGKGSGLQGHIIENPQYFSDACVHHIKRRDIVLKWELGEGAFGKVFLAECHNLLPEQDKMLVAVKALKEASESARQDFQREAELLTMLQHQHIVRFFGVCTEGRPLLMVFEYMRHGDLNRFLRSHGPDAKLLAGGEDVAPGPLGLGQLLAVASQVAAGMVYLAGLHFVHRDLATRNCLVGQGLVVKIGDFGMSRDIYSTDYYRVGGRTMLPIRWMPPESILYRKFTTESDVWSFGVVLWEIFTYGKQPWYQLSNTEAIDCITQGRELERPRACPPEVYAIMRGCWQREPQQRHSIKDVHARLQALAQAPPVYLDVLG

`O=C1Nc2ccc3ncsc3c2/C1=C/Nc1ccc(S(=O)(=O)Nc2ccccn2)cc1` showed an IC50 [1] of 0.009 µM.
Work on `Cn1cc(/C=C2\C(=O)Nc3ncccc32)c2ccccc21` yielded an IC50 [2] of 7.2 µM, an IC50 [1] of 0.012 µM and an IC50 [3] greater than 6 µM.
With `O=C1Nc2ccccc2/C1=C1\CCc2cc(O)ccc21` the IC50 [2] was greater than 10 µM, the IC50 [1] was 0.006 µM and the IC50 [3] was 8 µM.
In the case of `Cn1cc(/C=C2\C(=O)Nc3cccnc32)c2ccccc21`, the IC50 [2] is reported as greater than 12 µM.
Compound `O=C1Nc2ncc(Br)cc2/C1=C/c1cccc(Oc2ccccc2)c1` has an IC50 [2] greater than 50 µM, an IC50 [1] of 0.061 µM and an IC50 [3] greater than 50 µM.
For `C[C@]12O[C@H](C[C@]1(O)CO)n1c3ccccc3c3c4c(c5c6ccccc6n2c5c31)CNC4=O`, the Activity [4] was “Active” and the Activity [5] was “Active”.
For `NS(=O)(=O)c1cccc(N/C=C2\C(=O)Nc3ccccc32)c1` [GW275616X], the IC50 [2] was greater than 10 µM, the IC50 [1] was 0.063 µM and the IC50 [3] was greater than 10 µM.
Compound `CS(=O)(=O)Nc1ccc(N/C=C2\C(=O)Nc3ccccc32)cc1` [GW278681X] has an IC50 [2] greater than 10 µM, an IC50 [1] of 0.006 µM and an IC50 [3] of 8 µM.
For `O=C1Nc2ccccc2/C1=C/Nc1ccc2[nH]c(=O)[nH]c2c1` [GW284408X], the IC50 [2] was greater than 10 µM, the IC50 [1] was 0.007 µM and the IC50 [3] was 2.5 µM.
`O=C1Nc2ccccc2/C1=C/Nc1ccc(-n2cncn2)cc1` [GW301789X] gave an IC50 [2] greater than 10 µM, an IC50 [1] of 0.008 µM and an IC50 [3] of 7.2 µM.
Compound `O=C1Nc2ccc(I)cc2C1=Cc1cc(Br)c(O)c(Br)c1` [GW305074X] has an IC50 [1] of 4.7 µM.
In the case of `COc1ccccc1-c1cc(/C=C2\C(=O)Nc3ncc(Br)cc32)cc(Br)c1O` [GW442130X], the IC50 [2] is reported as 0.7 µM, the IC50 [1] is reported as 0.008 µM and the IC50 [3] is reported as 10.4 µM.
